This is an account of results in US20120083476A1, “HETEROARYL-SUBSTITUTED SPIROCYCLIC DIAMINE UREA MODULATORS OF FATTY ACID AMIDE HYDROLASE” (Janssen Pharmaceutica NV, priority 2009, published 2012).

Assay [1] deals with T1, Rat FAAH (Rattus norvegicus, UniProt P97612).
T1 construct: expressed in transfected cells; host or cells: SK-N-MC cells stably transfected with rat FAAH cDNA (G418 selection)
T1 sequence (P97612 1-579): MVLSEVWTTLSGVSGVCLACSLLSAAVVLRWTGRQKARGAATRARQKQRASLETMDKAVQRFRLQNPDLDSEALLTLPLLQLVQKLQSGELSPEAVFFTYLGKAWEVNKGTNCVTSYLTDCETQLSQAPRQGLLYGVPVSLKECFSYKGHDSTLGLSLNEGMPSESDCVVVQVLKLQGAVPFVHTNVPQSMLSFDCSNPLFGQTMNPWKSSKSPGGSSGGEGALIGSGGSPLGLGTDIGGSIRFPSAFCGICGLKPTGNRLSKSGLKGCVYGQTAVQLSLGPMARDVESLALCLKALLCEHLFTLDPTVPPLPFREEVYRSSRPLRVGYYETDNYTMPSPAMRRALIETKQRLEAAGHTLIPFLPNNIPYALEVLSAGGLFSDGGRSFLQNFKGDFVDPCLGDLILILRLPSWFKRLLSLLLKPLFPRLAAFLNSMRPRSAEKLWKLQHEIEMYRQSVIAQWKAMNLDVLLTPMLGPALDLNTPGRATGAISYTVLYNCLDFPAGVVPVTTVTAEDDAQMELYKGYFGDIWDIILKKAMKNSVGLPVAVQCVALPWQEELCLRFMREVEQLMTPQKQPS
Briefly: Assay Method 2: rat FAAH assay (3H-anandamide hydrolysis in cell homogenate). The assay is classed as biochemical. As to conditions: read-out: Assay 2 IC50. The method in brief:
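Homogenates of T84 cells or SK-N-MC cells stably transfected with rat FAAH, in pH 9 Tris/EDTA/glycerol/Triton buffer, incubated 1 h at room temperature with 3H-anandamide. Released labeled ethanolamine separated from substrate on activated charcoal and counted by scintillation; values averaged over runs.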

For assay [2], the target named is T2, FAAH (Homo sapiens, UniProt O00519).
T2 sequence (O00519 1-579): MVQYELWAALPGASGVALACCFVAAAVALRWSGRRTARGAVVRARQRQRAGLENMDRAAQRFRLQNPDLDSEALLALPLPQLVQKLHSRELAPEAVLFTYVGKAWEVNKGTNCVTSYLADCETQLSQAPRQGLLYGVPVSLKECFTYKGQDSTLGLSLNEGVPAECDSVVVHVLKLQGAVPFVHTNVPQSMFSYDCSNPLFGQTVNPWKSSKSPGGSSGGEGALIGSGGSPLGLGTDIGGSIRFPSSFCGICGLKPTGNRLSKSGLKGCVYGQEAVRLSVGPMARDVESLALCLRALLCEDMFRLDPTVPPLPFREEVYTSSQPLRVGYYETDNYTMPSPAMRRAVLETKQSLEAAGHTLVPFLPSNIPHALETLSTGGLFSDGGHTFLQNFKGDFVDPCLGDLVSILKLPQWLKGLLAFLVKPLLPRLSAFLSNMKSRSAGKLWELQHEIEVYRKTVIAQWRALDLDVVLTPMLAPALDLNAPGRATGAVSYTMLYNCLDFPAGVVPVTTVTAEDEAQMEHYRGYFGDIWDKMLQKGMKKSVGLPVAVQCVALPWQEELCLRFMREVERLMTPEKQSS
The assay can be described thus: Assay Method 1: human FAAH assay (3H-anandamide hydrolysis in cell homogenate). Format: biochemical. On the set-up: expressed in transfected cells; host or cells: SK-N-MC cells stably transfected with human FAAH cDNA (G418 selection); alternatively T84 cell pellets. The method in brief:
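Homogenates of T84 cells or SK-N-MC cells stably transfected with human FAAH, in pH 9 Tris/EDTA buffer with 0.02% Triton X-100. Incubated 1 h at rt with compound and 80 nM (final) [3H-ethanolamine]-anandamide. Released 3H-ethanolamine separated on charcoal filters and counted by scintillation.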

Structures can show the parent of a compound that is named as a salt. Where two headings read alike, the source gives them in different places.

On to `Cn1cc(Br)c(NC(=O)N2CC3(CCN(Cc4cccc(Oc5ccc(Cl)cc5)c4)CC3)C2)n1` [Example 62, 7-[3-(4-Chloro-phenoxy)-benzyl]-2,7-diaza-spiro[3.5]nonane-2-carboxylic acid (4-bromo-1-methyl-1H-pyrazol-3-yl)-amide, trifluoroacetic acid salt], for which the IC50 in assay [1] and in assay [2] (read-out: Assay 1 IC50) was above 10 µM throughout.

`CCn1nccc1NC(=O)N1CC2(CCN(Cc3cccc(Oc4ccc(Cl)cc4)c3)CC2)C1` [Example 63, 7-[3-(4-Chloro-phenoxy)-benzyl]-2,7-diaza-spiro[3.5]nonane-2-carboxylic acid (2-ethyl-2H-pyrazol-3-yl)-amide, trifluoroacetic acid salt]: the IC50 in assay [1] turned out to be 0.5 µM; in assay [2] (read-out: Assay 1 IC50), 1.45 µM.

Take `O=C(Nc1nnn[nH]1)N1CC2(CCN(Cc3cccc(Oc4ccc(Cl)cc4)c3)CC2)C1` [Example 64, 7-[3-(4-Chloro-phenoxy)-benzyl]-2,7-diaza-spiro[3.5]nonane-2-carboxylic acid (2H-tetrazol-5-yl)-amide, trifluoroacetic acid salt]: the half-inhibitory concentration (IC50) amounted to 0.06 µM in assay [1] and 3.16 µM in assay [2].

Consider `Cc1nc2cc(NC(=O)N3CC4(CCN(Cc5cccc(Oc6ccc(Cl)cc6)c5)CC4)C3)ccc2o1` [Example 65, 7-[3-(4-Chloro-phenoxy)-benzyl]-2,7-diaza-spiro[3.5]nonane-2-carboxylic acid (2-methyl-benzooxazol-5-yl)-amide], for which the concentration for half-maximal inhibition (IC50) amounted to 1.06 µM in assay [1] and 0.24 µM in assay [2] (read-out: Assay 1 IC50).

As for `O=C(Nc1noc2ncccc12)N1CC2(CCN(Cc3cccc(Oc4ccc(Cl)cc4)c3)CC2)C1` [Example 66, 7-[3-(4-Chloro-phenoxy)-benzyl]-2,7-diaza-spiro[3.5]nonane-2-carboxylic acid isoxazolo[5,4-b]pyridin-3-ylamide, trifluoroacetic acid salt], the IC50 in assay [1] was 0.6 µM; in assay [2] (read-out: Assay 1 IC50) it was 0.13 µM.

As for `O=C(Nc1noc2cccnc12)N1CC2(CCN(Cc3cccc(Oc4ccc(Cl)cc4)c3)CC2)C1` [Example 67, 7-[3-(4-Chloro-phenoxy)-benzyl]-2,7-diaza-spiro[3.5]nonane-2-carboxylic acid isoxazolo[4,5-b]pyridin-3-ylamide, trifluoroacetic acid salt], the half-maximal inhibitory concentration (IC50) in assay [1] is 0.01 µM; in assay [2] (read-out: Assay 1 IC50), 0.16 µM.

As for `O=C(Nc1cccc2cn[nH]c12)N1CC2(CCN(Cc3cccc(Oc4ccc(Cl)cc4)c3)CC2)C1` [Example 68, 7-[3-(4-Chloro-phenoxy)-benzyl]-2,7-diaza-spiro[3.5]nonane-2-carboxylic acid (1H-indazol-7-yl)-amide, trifluoroacetic acid salt], the concentration for half-maximal inhibition (IC50) in assay [1] and in assay [2] (read-out: Assay 1 IC50) was above 10 µM in each case.

For `O=C(Nc1ccc2nccn2c1)N1CC2(CCN(Cc3cccc(Oc4ccc(Cl)cc4)c3)CC2)C1` [Example 69, 7-[3-(4-Chloro-phenoxy)-benzyl]-2,7-diaza-spiro[3.5]nonane-2-carboxylic acid imidazo[1,2-a]pyridin-6-ylamide, trifluoroacetic acid salt], the concentration for half-maximal inhibition (IC50) in assay [1] and in assay [2] (read-out: Assay 1 IC50) was above 10 µM in each case.

Consider `COc1ccc(NC(=O)N2CC3(CCN(Cc4cccc(Oc5ccc(Cl)cc5)c4)CC3)C2)nn1` [Example 70, 7-[3-(4-Chloro-phenoxy)-benzyl]-2,7-diaza-spiro[3.5]nonane-2-carboxylic acid (6-methoxy-pyridazin-3-yl)-amide, trifluoroacetic acid salt], for which the values for the IC50 in assay [1] and in assay [2] (read-out: Assay 1 IC50) were 2.4 µM and 3 µM, respectively.

Regarding `O=C(Nc1ccnc(C(F)(F)F)n1)N1CC2(CCN(Cc3cccc(Oc4ccc(Cl)cc4)c3)CC2)C1` [Example 71, 7-[3-(4-Chloro-phenoxy)-benzyl]-2,7-diaza-spiro[3.5]nonane-2-carboxylic acid (2-trifluoromethyl-pyrimidin-4-yl)-amide, trifluoroacetic acid salt], the concentration for half-maximal inhibition (IC50) in assay [1] is 5 µM; in assay [2] (read-out: Assay 1 IC50) it was above 10 µM.

Turning to `COc1nccc(NC(=O)N2CC3(CCN(Cc4cccc(Oc5ccc(Cl)cc5)c4)CC3)C2)n1` [Example 72, 7-[3-(4-Chloro-phenoxy)-benzyl]-2,7-diaza-spiro[3.5]nonane-2-carboxylic acid (2-methoxy-pyrimidin-4-yl)-amide, trifluoroacetic acid salt], the values for the IC50 in assay [1] and in assay [2] (read-out: Assay 1 IC50) were 0.06 µM and 1.7 µM, respectively.

As to `O=C(Nc1cncc(F)c1)N1CC2(CCN(Cc3cccc(Oc4ccc(Cl)cc4)c3)CC2)C1` [Example 73, 7-[3-(4-Chloro-phenoxy)-benzyl]-2,7-diaza-spiro[3.5]nonane-2-carboxylic acid (5-fluoro-pyridin-3-yl)-amide, trifluoroacetic acid salt], the results for the IC50 in assay [1] and in assay [2] (read-out: Assay 1 IC50) were 0.45 µM and 0.08 µM, respectively.

On to `O=C(Nc1ccnc2[nH]ccc12)N1CC2(CCN(Cc3cccc(Oc4ccc(Cl)cc4)c3)CC2)C1` [Example 74, 7-[3-(4-Chloro-phenoxy)-benzyl]-2,7-diaza-spiro[3.5]nonane-2-carboxylic acid (1H-pyrrolo[2,3-b]pyridin-4-yl)-amide, trifluoroacetic acid salt], for which the IC50 in assay [1] is 2 µM; in assay [2] (read-out: Assay 1 IC50), above 10 µM.

With `Cc1nn(C)c2ncc(NC(=O)N3CC4(CCN(Cc5cccc(Oc6ccc(Cl)cc6)c5)CC4)C3)cc12` [Example 75, 7-(3-(4-chlorophenoxy)benzyl)-N-(1,3-dimethyl-1H-pyrazolo[3,4-b]pyridin-5-yl)-2,7-diazaspiro[3.5]nonane-2-carboxamide, trifluoroacetic acid salt], the IC50 stood at 0.4 µM in assay [1] and 2.5 µM in assay [2] (read-out: Assay 1 IC50).

For `Cc1cc(NC(=O)N2CC3(CCN(Cc4cccc(Oc5ccc(Cl)cc5)c4)CC3)C2)no1` [Example 76, 7-(3-(4-chlorophenoxy)benzyl)-N-(5-methylisoxazol-3-yl)-2,7-diazaspiro[3.5]nonane-2-carboxamide, trifluoroacetic acid salt], the IC50 in assay [1] and in assay [2] (read-out: Assay 1 IC50) was above 10 µM in each case.

Consider `Cc1nc2ccc(NC(=O)N3CC4(CCN(Cc5cccc(Oc6ccc(Cl)cc6)c5)CC4)C3)cc2s1` [Example 77, 7-(3-(4-chlorophenoxy)benzyl)-N-(2-methylbenzo[d]thiazol-6-yl)-2,7-diazaspiro[3.5]nonane-2-carboxamide, trifluoroacetic acid salt], for which the IC50 in assay [1] and in assay [2] (read-out: Assay 1 IC50) was above 10 µM each time.

With `Cc1cc(NC(=O)N2CC3(CCN(Cc4cccc(Oc5ccc(Cl)cc5)c4)CC3)C2)n[nH]1` [Example 78, 7-(3-(4-chlorophenoxy)benzyl)-N-(5-methyl-1H-pyrazol-3-yl)-2,7-diazaspiro[3.5]nonane-2-carboxamide, trifluoroacetic acid salt], the IC50 in assay [1] and in assay [2] (read-out: Assay 1 IC50) was above 10 µM throughout.

For `Cc1cncc(NC(=O)N2CC3(CCN(Cc4cccc(Oc5ccc(Cl)cc5)c4)CC3)C2)c1` [Example 79, 7-(3-(4-chlorophenoxy)benzyl)-N-(5-methylpyridin-3-yl)-2,7-diazaspiro[3.5]nonane-2-carboxamide, trifluoroacetic acid salt], the half-inhibitory concentration (IC50) in assay [1] is 0.03 µM; in assay [2] (read-out: Assay 1 IC50) it was 0.07 µM.

`O=C(Nc1cccnc1F)N1CC2(CCN(Cc3cccc(Oc4ccc(Cl)cc4)c3)CC2)C1` [Example 80, 7-(3-(4-chlorophenoxy)benzyl)-N-(2-fluoropyridin-3-yl)-2,7-diazaspiro[3.5]nonane-2-carboxamide, trifluoroacetic acid salt]: the IC50 in assay [1] is 0.57 µM; in assay [2] (read-out: Assay 1 IC50), 0.14 µM.

`O=C(Nc1ccc(N2CCCCC2)nc1)N1CC2(CCN(Cc3cccc(Oc4ccc(Cl)cc4)c3)CC2)C1` [Example 81, 7-(3-(4-chlorophenoxy)benzyl)-N-(6-(piperidin-1-yl)pyridin-3-yl)-2,7-diazaspiro[3.5]nonane-2-carboxamide, trifluoroacetic acid salt]: the concentration for half-maximal inhibition (IC50) turned out to be 3 µM in assay [1] and 1.6 µM in assay [2] (read-out: Assay 1 IC50).
